Data from patent US12317913B2, “Dietary butyrate” (SOCIETE DES PRODUITS NESTLE S.A., priority 2019, dated 2025).

Columns and labels:
[1] = biological target: T1, porcine pancreatic lipase (PPL) (Sus scrofa, UniProt P00591); experiment: In vitro digestion in simulated intestinal fluid (SIF), pH-stat; type: in vitro ADME; conditions: SIF alone; emulsion with 200 mg fat; pH 6.8, 37° C.
T1 construct: by porcine pancreatic lipase (from pancreatin); from tissue; host or cells: pancreatin (pancreatic extract)
T1 sequence (P00591 1-450): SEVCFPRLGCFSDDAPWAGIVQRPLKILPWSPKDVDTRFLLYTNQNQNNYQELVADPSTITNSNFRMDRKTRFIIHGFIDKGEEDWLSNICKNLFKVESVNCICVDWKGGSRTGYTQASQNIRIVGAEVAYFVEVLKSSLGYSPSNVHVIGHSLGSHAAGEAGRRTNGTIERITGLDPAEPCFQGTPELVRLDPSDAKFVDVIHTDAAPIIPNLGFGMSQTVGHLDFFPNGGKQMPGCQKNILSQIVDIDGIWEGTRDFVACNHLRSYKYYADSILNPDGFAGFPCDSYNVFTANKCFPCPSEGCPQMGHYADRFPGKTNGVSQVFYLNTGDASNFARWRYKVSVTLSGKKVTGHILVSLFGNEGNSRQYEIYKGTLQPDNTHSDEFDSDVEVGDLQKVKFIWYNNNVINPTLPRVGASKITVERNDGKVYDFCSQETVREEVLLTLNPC
T1 sequence (P02703 23-112 partner): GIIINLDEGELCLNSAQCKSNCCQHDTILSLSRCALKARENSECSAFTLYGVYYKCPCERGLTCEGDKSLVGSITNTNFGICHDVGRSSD
Text: (§1) An emulsion was then created using an ultrasonic probe homogeniser.

[2] = system: rabbit gastric lipase (RGL) followed by porcine pancreatic lipase (PPL); experiment: Sequential in vitro digestion, simulated gastric fluid (SGF) then simulated intestinal fluid (SIF); type: in vitro ADME
Text: as §1

Human primary myoblasts = experiment: Muscle stem cell commitment (MyoD+ cells); type: cell-based; conditions: donors 8 and 4; 96 hours culture; FIG. 3
Protocol: Human primary myoblasts from two different donors (donor 8 & donor 4) were seeded in 384 well plates at a density of 1'000 cells per well in skeletal muscle growth medium (SKM-M, AMSbio). For treatment, compounds were directly added to the myoblast cultures 16 hours after initial plating. All cultures were then grown for 96 hours. Cells were stained for Pax7 and MyoD expression using antibodies directed against Pax7 and MyoD and counterstained with Hoechst 33342 to visualize cell nuclei. […] Image acquisition was performed using the ImageXpress (Molecular Devices) platform. Custom module analysis based on Multi-Wavelength Cell Scoring of the MetaXpress software was used for quantification. For each condition, the total number of cells was determined to evaluate compound toxicity, and the number of MyoD+ cells was normalized to the total cell number in order to evaluate the proportion of this population. *, **, ***, **** indicates difference from the control (DMSO 1%), One-way ANOVA, with p<0.05, p<0.01, p<0.001, p<0.0001, respectively. Data are presented as Mean +/− SEM

Row | Compound | Initial rate of lipolysis [1] | Initial lipolysis rate in SIF ([2]; SGF-SIF sequential digestion, measured in SIF compartment) | Hydrolysis in the stomach (gastric lipolysis), in words ([2]; gastric compartment, inferred from SGF-SIF vs SIF) | Lipolysis by gastric lipase ([2]; indicated by decreased total fatty acid release in SIF after RGL in SGF) | Myogenic commitment (MyoD+ cells normalized to total cell number) (Human primary myoblasts)
1 | CCCC(=O)OCC(COC(=O)CCC)OC(=O)CCC [tributyrin] | 223 ± 59 µmol/min | 44.1 ± 8.8 µmol/min | extensive hydrolysis in the stomach | −60% | 
2 | CCCC(=O)[O-].[Na+] [sodium butyrate] |  |  |  |  | promotes muscle stem cell differention
